Like-named read-outs stand apart in the source and are kept apart here.
Experiments:
[1] = type: physicochemical; conditions: stored at room temperature (21-25° C.)
Method: At each time period, 0.05 g of powder was dissolved in 10 ml-15 of ethanol, diluted to fall within the analytical range, and injected into the LCMSMS for analysis.

[2] = Stability of cannabinoid and Vitamin E components of Beverage 2 (AB Red) stored at 8° C. and 21-25° C., LCMSMS over 570 days

In the case of `C=C(C)[C@@H]1CCC(C)=C[C@H]1c1c(O)cc(CCC)cc1O` [CBDV, cannabidivarin], the “Stability in Powder Concentrate (content by LCMSMS)” value (from here on “Stability in Powder Concentrate”) ([1]; day 0) was 0.050 mg/g powder, the “Stability in Powder Concentrate” value ([1]; day 1) was 0.051 mg/g powder and the “Stability in Powder Concentrate” value ([1]; day 2) was 0.051 mg/g powder. For the same compound, the “Stability in Powder Concentrate” value ([1]; day 3) was 0.048 mg/g powder, the “Stability in Powder Concentrate” value ([1]; day 5) was 0.050 mg/g powder and the “Stability in Powder Concentrate” value ([1]; day 8) was 0.051 mg/g powder. For the same compound, the “Stability in Powder Concentrate” value ([1]; day 9) was 0.049 mg/g powder, the “Stability in Powder Concentrate” value ([1]; day 10) was 0.050 mg/g powder and the “Stability in Powder Concentrate” value ([1]; day 11) was 0.051 mg/g powder. The “Stability in Powder Concentrate” value ([1]; day 12) was 0.051 mg/g powder, the “Stability in Powder Concentrate” value ([1]; day 15) was 0.050 mg/g powder and the “Stability in Powder Concentrate” value ([1]; day 16) was 0.049 mg/g powder. The “Stability in Powder Concentrate” value ([1]; day 17) was 0.051 mg/g powder, the “Stability in Powder Concentrate” value ([1]; day 18) was 0.051 mg/g powder and the “Stability in Powder Concentrate” value ([1]; day 19) was 0.048 mg/g powder. For the same compound, the “Stability in Powder Concentrate” value ([1]; day 22) was 0.049 mg/g powder, the “Stability in Powder Concentrate” value ([1]; day 23) was 0.050 mg/g powder and the “Stability in Powder Concentrate” value ([1]; day 24) was 0.051 mg/g powder. For the same compound, the “Stability in Powder Concentrate” value ([1]; day 25) was 0.052 mg/g powder, the “Stability in Powder Concentrate” value ([1]; day 26) was 0.050 mg/g powder and the “Stability in Powder Concentrate” value ([1]; day 29) was 0.049 mg/g powder. The “Stability in Powder Concentrate” value ([1]; day 30) was 0.051 mg/g powder, the “Stability in Powder Concentrate” value ([1]; day 60) was 0.050 mg/g powder and the “Stability in Powder Concentrate” value ([1]; day 90) was 0.050 mg/g powder. The “Stability in Powder Concentrate” value ([1]; day 120) was 0.050 mg/g powder, the “Stability in Powder Concentrate” value ([1]; day 150) was 0.051 mg/g powder and the “Stability in Powder Concentrate” value ([1]; day 180) was 0.050 mg/g powder. For the same compound, the “Stability in Powder Concentrate” value ([1]; day 210) was 0.049 mg/g powder, the “Stability in Powder Concentrate” value ([1]; day 240) was 0.052 mg/g powder and the “Stability in Powder Concentrate” value ([1]; day 270) was 0.051 mg/g powder. The “Stability in Powder Concentrate” value ([1]; day 300) was 0.049 mg/g powder, the “Stability in Powder Concentrate” value ([1]; day 330) was 0.052 mg/g powder and the “Stability in Powder Concentrate” value ([1]; day 360) was 0.050 mg/g powder. For the same compound, the “Stability in Powder Concentrate” value ([1]; day 390) was 0.049 mg/g powder, the “Stability in Powder Concentrate” value ([1]; day 420) was 0.051 mg/g powder and the “Stability in Powder Concentrate” value ([1]; day 450) was 0.049 mg/g powder. The “Stability in Powder Concentrate” value ([1]; day 480) was 0.051 mg/g powder, the “Stability in Powder Concentrate” value ([1]; day 510) was 0.049 mg/g powder and the “Stability in Powder Concentrate” value ([1]; day 540) was 0.052 mg/g powder. The “Stability in Powder Concentrate” value ([1]; day 570) was 0.048 mg/g powder, the “Stability of Cannabinoids in AB Red” value ([2]; 8° C., 0 days) was 0.200 µg/mL and the “Stability of Cannabinoids in AB Red” value ([2]; 8° C., 1 days) was 0.194 µg/mL. The “Stability of Cannabinoids in AB Red” value ([2]; 8° C., 2 days) was 0.197 µg/mL, the “Stability of Cannabinoids in AB Red” value ([2]; 8° C., 3 days) was 0.199 µg/mL and the “Stability of Cannabinoids in AB Red” value ([2]; 8° C., 5 days) was 0.198 µg/mL. For the same compound, the “Stability of Cannabinoids in AB Red” value ([2]; 8° C., 8 days) was 0.198 µg/mL, the “Stability of Cannabinoids in AB Red” value ([2]; 8° C., 9 days) was 0.201 µg/mL and the “Stability of Cannabinoids in AB Red” value ([2]; 8° C., 10 days) was 0.194 µg/mL. For the same compound, the “Stability of Cannabinoids in AB Red” value ([2]; 8° C., 11 days) was 0.195 µg/mL, the “Stability of Cannabinoids in AB Red” value ([2]; 8° C., 12 days) was 0.198 µg/mL and the “Stability of Cannabinoids in AB Red” value ([2]; 8° C., 15 days) was 0.194 µg/mL. The “Stability of Cannabinoids in AB Red” value ([2]; 8° C., 16 days) was 0.195 µg/mL, the “Stability of Cannabinoids in AB Red” value ([2]; 8° C., 17 days) was 0.195 µg/mL and the “Stability of Cannabinoids in AB Red” value ([2]; 8° C., 18 days) was 0.195 µg/mL. For the same compound, the “Stability of Cannabinoids in AB Red” value ([2]; 8° C., 19 days) was 0.199 µg/mL, the “Stability of Cannabinoids in AB Red” value ([2]; 8° C., 22 days) was 0.200 µg/mL and the “Stability of Cannabinoids in AB Red” value ([2]; 8° C., 23 days) was 0.194 µg/mL. For the same compound, the “Stability of Cannabinoids in AB Red” value ([2]; 8° C., 24 days) was 0.197 µg/mL, the “Stability of Cannabinoids in AB Red” value ([2]; 8° C., 25 days) was 0.199 µg/mL and the “Stability of Cannabinoids in AB Red” value ([2]; 8° C., 26 days) was 0.199 µg/mL. For the same compound, the “Stability of Cannabinoids in AB Red” value ([2]; 8° C., 29 days) was 0.197 µg/mL, the “Stability of Cannabinoids in AB Red” value ([2]; 8° C., 30 days) was 0.200 µg/mL and the “Stability of Cannabinoids in AB Red” value ([2]; 8° C., 60 days) was 0.199 µg/mL. For the same compound, the “Stability of Cannabinoids in AB Red” value ([2]; 8° C., 90 days) was 0.196 µg/mL, the “Stability of Cannabinoids in AB Red” value ([2]; 8° C., 120 days) was 0.193 µg/mL and the “Stability of Cannabinoids in AB Red” value ([2]; 8° C., 150 days) was 0.198 µg/mL. For the same compound, the “Stability of Cannabinoids in AB Red” value ([2]; 8° C., 180 days) was 0.192 µg/mL, the “Stability of Cannabinoids in AB Red” value ([2]; 8° C., 210 days) was 0.193 µg/mL and the “Stability of Cannabinoids in AB Red” value ([2]; 8° C., 240 days) was 0.192 µg/mL. The “Stability of Cannabinoids in AB Red” value ([2]; 8° C., 270 days) was 0.195 µg/mL, the “Stability of Cannabinoids in AB Red” value ([2]; 8° C., 300 days) was 0.193 µg/mL and the “Stability of Cannabinoids in AB Red” value ([2]; 8° C., 330 days) was 0.191 µg/mL. For the same compound, the “Stability of Cannabinoids in AB Red” value ([2]; 8° C., 390 days) was 0.194 µg/mL, the “Stability of Cannabinoids in AB Red” value ([2]; 8° C., 420 days) was 0.193 µg/mL and the “Stability of Cannabinoids in AB Red” value ([2]; 8° C., 450 days) was 0.195 µg/mL. For the same compound, the “Stability of Cannabinoids in AB Red” value ([2]; 8° C., 480 days) was 0.190 µg/mL, the “Stability of Cannabinoids in AB Red” value ([2]; 8° C., 510 days) was 0.184 µg/mL and the “Stability of Cannabinoids in AB Red” value ([2]; 8° C., 540 days) was 0.185 µg/mL. The “Stability of Cannabinoids in AB Red” value ([2]; 8° C., 570 days) was 0.183 µg/mL, the “Stability of Cannabinoids in AB Red” value ([2]; 21-25° C., 0 days) was 0.20 µg/mL and the “Stability of Cannabinoids in AB Red” value ([2]; 21-25° C., 1 days) was 0.20 µg/mL. The “Stability of Cannabinoids in AB Red” value ([2]; 21-25° C., 2 days) was 0.20 µg/mL, the “Stability of Cannabinoids in AB Red” value ([2]; 21-25° C., 3 days) was 0.20 µg/mL and the “Stability of Cannabinoids in AB Red” value ([2]; 21-25° C., 5 days) was 0.19 µg/mL. The “Stability of Cannabinoids in AB Red” value ([2]; 21-25° C., 8 days) was 0.20 µg/mL, the “Stability of Cannabinoids in AB Red” value ([2]; 21-25° C., 9 days) was 0.20 µg/mL and the “Stability of Cannabinoids in AB Red” value ([2]; 21-25° C., 10 days) was 0.20 µg/mL. For the same compound, the “Stability of Cannabinoids in AB Red” value ([2]; 21-25° C., 11 days) was 0.20 µg/mL, the “Stability of Cannabinoids in AB Red” value ([2]; 21-25° C., 12 days) was 0.20 µg/mL and the “Stability of Cannabinoids in AB Red” value ([2]; 21-25° C., 15 days) was 0.20 µg/mL. The “Stability of Cannabinoids in AB Red” value ([2]; 21-25° C., 16 days) was 0.19 µg/mL, the “Stability of Cannabinoids in AB Red” value ([2]; 21-25° C., 17 days) was 0.20 µg/mL and the “Stability of Cannabinoids in AB Red” value ([2]; 21-25° C., 18 days) was 0.20 µg/mL. The “Stability of Cannabinoids in AB Red” value ([2]; 21-25° C., 19 days) was 0.19 µg/mL, the “Stability of Cannabinoids in AB Red” value ([2]; 21-25° C., 22 days) was 0.20 µg/mL and the “Stability of Cannabinoids in AB Red” value ([2]; 21-25° C., 23 days) was 0.19 µg/mL. The “Stability of Cannabinoids in AB Red” value ([2]; 21-25° C., 24 days) was 0.19 µg/mL, the “Stability of Cannabinoids in AB Red” value ([2]; 21-25° C., 25 days) was 0.19 µg/mL and the “Stability of Cannabinoids in AB Red” value ([2]; 21-25° C., 26 days) was 0.19 µg/mL. For the same compound, the “Stability of Cannabinoids in AB Red” value ([2]; 21-25° C., 29 days) was 0.19 µg/mL, the “Stability of Cannabinoids in AB Red” value ([2]; 21-25° C., 30 days) was 0.20 µg/mL and the “Stability of Cannabinoids in AB Red” value ([2]; 21-25° C., 60 days) was 0.20 µg/mL. The “Stability of Cannabinoids in AB Red” value ([2]; 21-25° C., 90 days) was 0.19 µg/mL, the “Stability of Cannabinoids in AB Red” value ([2]; 21-25° C., 120 days) was 0.19 µg/mL and the “Stability of Cannabinoids in AB Red” value ([2]; 21-25° C., 150 days) was 0.20 µg/mL. For the same compound, the “Stability of Cannabinoids in AB Red” value ([2]; 21-25° C., 180 days) was 0.20 µg/mL, the “Stability of Cannabinoids in AB Red” value ([2]; 21-25° C., 210 days) was 0.19 µg/mL and the “Stability of Cannabinoids in AB Red” value ([2]; 21-25° C., 240 days) was 0.20 µg/mL. The “Stability of Cannabinoids in AB Red” value ([2]; 21-25° C., 270 days) was 0.20 µg/mL, the “Stability of Cannabinoids in AB Red” value ([2]; 21-25° C., 300 days) was 0.19 µg/mL and the “Stability of Cannabinoids in AB Red” value ([2]; 21-25° C., 330 days) was 0.19 µg/mL. For the same compound, the “Stability of Cannabinoids in AB Red” value ([2]; 21-25° C., 390 days) was 0.19 µg/mL, the “Stability of Cannabinoids in AB Red” value ([2]; 21-25° C., 420 days) was 0.19 µg/mL and the “Stability of Cannabinoids in AB Red” value ([2]; 21-25° C., 450 days) was 0.19 µg/mL. The “Stability of Cannabinoids in AB Red” value ([2]; 21-25° C., 480 days) was 0.19 µg/mL, the “Stability of Cannabinoids in AB Red” value ([2]; 21-25° C., 510 days) was 0.19 µg/mL and the “Stability of Cannabinoids in AB Red” value ([2]; 21-25° C., 540 days) was 0.19 µg/mL. For the same compound, the “Stability of Cannabinoids in AB Red” value ([2]; 21-25° C., 570 days) was 0.18 µg/mL.
